# Data from patent US10709769B2, “Use of endostatin peptides for the treatment of fibrosis” (University of Pittsburgh—Of the Commonwealth System of …, priority 2009, dated 2020).
# How the values were obtained:
# [1] = system: human primary skin fibroblasts; test: TGF-β-induced ECM production in primary skin (dermal) fibroblasts, western blot; assay type: cell-based; conditions: dermal fibroblasts from healthy controls, SSc or morphea patients
# Protocol: Human primary lung and skin fibroblasts were cultured. The explanted lungs of normal organ donors, patients with SSc or IPF, and clinically involved skin of SSc patients, a morphea patient and healthy donors were used for primary fibroblast culture. Approximately 2-cm pieces of peripheral lung and skin were minced and fibroblasts were cultured in Dulbecco's modified Eagle's medium (DMEM; Mediatech, Herndon, Va.) supplemented with 10% FBS, penicillin, streptomycin, and anti-mycotic agent, as previously described (Feghali et al., Arthritis Rheum 1999; 42:1451-7). All the cells were used between passages 3-6.
# (§1) Cellular lysates were obtained from cultured fibroblasts as previously described (Pilewski et al., Am J Pathol 2005; 166:399-407). […] Cellular lysates were analyzed by western blot. Signals were detected following incubation with horseradish peroxidase-conjugated secondary antibody and chemiluminescence (Perkin Elmer Life Sciences, Inc., Boston, Mass.). The intensity of individual bands with expected molecular sizes was semi-quantitatively analyzed using the image/J® software available at on the internet (/rsb.info.nih.gov/ij/index.html), and normalized to individual GAPDH intensity. […]
# mouse skin = test: TGF-β-induced dermal fibrosis in vivo in mouse skin
# Protocol: FIG. 9. E4 reverses TGF β-induced dermal fibrosis even if administered 3 days following TGF-β.
# CB57BL6/J male mice were purchased from The Jackson Laboratory (Bar Harbor, Me.). Human rE (10 μg/ml) or Endostatin peptides (10 μg/ml) in combination with TGF-β (10 ng/ml), or TGF-β alone were injected intradermally on the back of mice in a total volume of 100 μl 1×PBS. Mice were injected in two different skin sites and sacrificed one week post-injection. Skin surrounding the injection site was harvested and fixed in 10% formalin prior to embedding in paraffin.
# Six μm sections of paraffin-embedded human and mouse skin tissues were stained with hematoxylin and eosin (H&E). In some experiments, sections were stained with Masson trichrome which identifies collagens. Images were taken on a Nikon Eclipse 800 microscope. The thickness of the dermis was measured in 6 random fields of each section using the image/J® software. Data are shown in arbitrary units.
# E4, a peptide representing the carboxy terminus of human endostatin, can attenuate fibrosis triggered by multiple fibrogenic factors. The anti-fibrotic effects of E4 can be detected whether administered concomitantly with or following the fibrogenic trigger. The efficacy of E4 was confirmed in […] pre-clinical models of fibrosis: a) bleomycin-induced dermal fibrosis in vivo in mouse skin, b) TGF-β induced dermal fibrosis in mouse skin, and c) bleomycin-induced pulmonary fibrosis. E4 peptide or a control peptide (E1; representing the amino terminal region of endostatin) were administered at the same time as TGF-β or bleomycin or 3-4 days following TGF-β or bleomycin. Mice were sacrificed one and two weeks after TGF-β-initiation of dermal fibrosis, and two and three weeks after bleomycin-induced pulmonary fibrosis. Two different modes of administration of the E4 peptide were also tested. It was confirmed that intraperitoneal and intratracheal administration was effective. The amount of E4 that was administered ws 10 μg/ml in a total volume of 100 μl for skin and IP injections and 50 μl for IT administration.
# lysyl oxidase (LOX) = test: LOX immunohistochemistry in lung sections of bleomycin-treated mice; assay type: in vivo, mouse; conditions: lung sections of mice treated with bleomycin with or without E4
# Description: FIG. 12. […] Lung sections of mice treated with BLM with or without E4 were used in immunohistochemistry to detect LOX. The sections shown are control IgG, phosphate buffered saline, bleomycin and bleomycin followed by treatment with E4.
# The results also evidenced that E4 exerts its anti-fibrotic effects via multiple pathways. E4 reduces levels of lysyl oxidase (LOX), and enzyme responsible for the cross-linking of collagen, elastin, and other extracellular matrix (ECM) molecules and thus the stabilization of the ECM.
# ID1 = ID1 mRNA real-time PCR in primary human lung fibroblasts; assay type: cell-based
# Protocol: FIG. 15. E4 reduces fibrosis in vitro by inducing expression of ID1, an inhibitor of TGF β, in primary human lung fibroblasts. Real-time PCR analysis was performed to determine the ID1 mRNA levels under the indicated conditions.
# [2] = system: fibrotic lung fibroblasts from patients with IPF; test: FN and Col1α1 in fibrotic lung fibroblasts without TGF-β stimulation, western blot; assay type: cell-based, human
# Description: FIGS. 1A-1F. ECM production in recombinant endostatin- and endostatin-derived peptide-treated fibroblasts in combination with TGF-β stimulation. A: FN and Col1α1 expression in human normal lung fibroblasts (NL) treated with vehicle (V), rE alone, or both with prior TGF-β stimulation. Proteins were detected western blot. GAPDH was used as a loading control for lysates. B: FN and Col1α1 expression of endostatin polypeptide-treated lung fibroblasts following TGF-β stimulation in primary pulmonary fibroblasts from a healthy control, a patient with SSc, and a patient with IPF. C: Graphical summary of FN and Col1α1 expression in lung fibroblasts obtained using fibroblasts from 4 healthy controls (NL), 3 patients with SSc, and 3 patients with IPF. Intensity of bands was normalized to that of GAPDH and expressed as a ratio to Vehicle (V). Paired-t test was used for statistical analysis. * P<0.04, ** P<0.01. D: Representative result of FN and Col1α1 levels in human skin fibroblasts obtained from a patient with morphea and a patient with SSc. E: Representative result of FN and Col1α1 expression in fibrotic fibroblasts obtained from a patients with IPF treated with V, 5 μg/ml of rE, or endostatin polypeptides alone (left). IPF fibroblasts were treated with different concentrations (5, 10, and 20 μg/ml) of E4. DMSO (V) was added in a volume equivalent to that in the lane corresponding to 20 μg/ml of E4 (right). […]
# as §1
# [3] = no TGF-β, 5, 10 and 20 μg/ml, vs vehicle control
substance,measurement,setting,value
"H-^133SYCETWRTEAPSATGQASSLLGGRLLGQSAASCHHAYIVLCIENSFMT^180-CONH2 (H-SYCETWRTEAPSATGQASSLLGGRLLGQSAASCHHAYIVLCIENSFMT-NH2; cysteine pairing not given here; UniProt P39060 1704-1751, looked up, fragment) [E4, amino acids 133-180 of human endostatin; differs from E3 by the presence of a carboxy-terminal amide]","TGF-β-induced ECM production (FN, Col1α1)",[1],reduced
same,"TGFbeta induced dermal fibrosis, delayed treatment","mouse skin; TGFβ day 1, peptide IP at day 3, harvested day 7",significant decrease
same,TGF-β-induced dermal fibrosis (dermal thickness),"mouse skin; mice, intradermal, 10 μg/ml with TGF-β 10 ng/ml, one week post-injection",prevented
same,levels of lysyl oxidase (LOX),lysyl oxidase (LOX),reduces
same,levels of inhibitor of differentiation (ID)-1,ID1,increases
same,FN and Col1α1 levels,"[2]; no TGF-β stimulation, peptide alone",decreased
same,Col1α1 levels,[2]; [3],dose-dependently reduced
same,FN levels,[2]; [3],modest effect
